Key:
[1] = test system: freshly isolated murine distal total epithelial cells; assay: 3D organoid culture of freshly isolated murine distal total epithelial cells; type: cell-based
Text: (§1) FIG. 1. Experimental design. Preconditioning of donor cells, including addition of small molecules such as ROCK inhibitor, pifithrin α, or combined together, and generation of organoids.
FIG. 3. […] Addition of the TGF-β inhibitor, SB 431542 to the culture medium increases the % colony forming efficiency of freshly isolated murine lung epithelial cells. Addition of Pifithrin α causes an increase in organoids size, while addition of ROCKi causes an increase in the colony forming efficiency.
FIG. 13. Effect of p53 and ROCKi inhibition on murine freshly isolated distal total epithelial cells in (+SB431542). Addition of both ROCKi and Pifithrin alpha (in presence of SB431542) increases the colony forming efficiency of freshly isolated murine distal total epithelial cells (isolated from the lung without trachea). […] Pifithrin alpha also causes an increase in the size of the organoids (C). […] The drop in mean diameter of the Pifithrin alpha+ROCKi group is likely due to space constraints because of the large number of organoids per well.
Further described herein is a cell culture including a quantity of human stem cells, or stem cell derived cells in a cell culture media including at least one molecule including: a RHO-kinase (ROCK) inhibitor, SMAD inhibitor, and p53 inhibitor. In other embodiments, the RHO-kinase inhibitor is Y27632 and the p53 inhibitor is Pifithrin α. In other embodiments, the stem cells are adult stem cells. In other embodiments, the stem cell derived cells are lung epithelial cells. In various embodiments, the aforementioned inhibitors are at a concentration of 0.1-1 uM, 1-5 uM, 5-10 uM, 10-25 uM, 25-50 uM, or 50 uM or more. In various embodiments, the p53 inhibitor is Pifithrin-alpha. For example, this includes a media formulated as follows: 5 mL FBS, 500 uL ITS (100×), 50 uL Fungizone, 500 uL Pen/Strep (100×), DMEM/F12 up to 50 mL, 5 uL SB431542, Pifithrin-alpha 10 uM, ROCKi (Y-27632 dihydrochloride)—10 uM. Also described herein is a quantity of organoids including cells made by the aforementioned methods. In various embodiments, the organoids include proximal and/or distal cells. In various embodiments, the distal cells are alveolar type II progenitors and/or Scgb1a1 positive club progenitor cells.

[2] = test system: freshly isolated alveolar type II cells; assay: Organoid culture of lineage labelled murine alveolar type II cells; type: cell-based; conditions: GFP+ alveolar type II cells, in presence of SB431542
Text: FIG. 15. Effect of ROCK and P53 inhibition on lineage labelled murine alveolar type II cells. GFP^+ alveolar type II cells were isolated from tamoxifen treated SPC-CreER/ROSARG mice. Addition of both ROCKi and Pifithrin alpha (in presence of SB431542) increases the colony forming efficiency of freshly isolated alveolar typeII cells (regional stem cells which maintain the epithelium of the air sacs in the lung). The effect is synergistic for their combined use, similar to that seen for total distal epithelial cells in the previous figures.
ROCKi increases the colony forming efficiency when murine distal total epithelial cells (isolated from the lung without trachea) are pre-cultured on collagen coated plates for 24 hrs prior after initial isolation. The effect on size is more pronounced when cells are precultured for 24 hrs on collagen coated plates after initial isolation. The drop in CFE in the Pifithrin alpha+ROCKi group is likely due space and nutrient availability constraints due to the large number of organoids per well. Addition of both ROCKi and Pifithrin alpha (in presence of SB431542) increases the colony forming efficiency of freshly isolated alveolar type II cells (regional stem cells which maintain the epithelium of the air sacs in the lung). The effect is synergistic for their combined use, similar to that seen for total distal epithelial cells in the previous figures.

[3] = test system: freshly isolated murine proximal total epithelial cells; assay: Organoid culture of murine tracheal progenitor (basal) cells; type: cell-based
Method: FIG. 18. Effect of ROCK and P53 inhibition on murine tracheal progenitor (basal) cells. Addition of both ROCKi (in presence of SB431542) increases the colony forming efficiency of freshly isolated murine proximal total epithelial cells (isolated from the murine trachea).
Distal progenitor cells were cultured as 3D organoids for 14 days in presence of Pifithrin-alpha, ROCKi and SB431542 followed by culture for 7 days in media without all three inhibitors. […] Addition of ROCKi (in presence of SB431542) increases the colony forming efficiency of freshly isolated club cells (regional stem cells which maintain certain cell types in the bronchiolar epithelium) whereas addition of Pifithrin alpha (in presence of SB431542) increases the size of Scgb1a1-derived organoids. Addition of both ROCKi (in presence of SB431542) increases the colony forming efficiency of freshly isolated murine proximal total epithelial cells (isolated from the murine trachea).

freshly isolated cells = assay: Freshly isolated cells cultured with small molecules at different time points (proliferation); type: cell-based; conditions: different time points (FIG. 2)
Text: as §1
FIG. 2. Freshly isolated cells cultured with small molecules at different time points.

p53 = target: T1, p53 (Homo sapiens, UniProt P04637); conditions: cited from earlier work
T1 construct: host or cells: neuronal cells (not further described)

[4] = freshly isolated cells, in presence of SB431542 (FIG. 13)

T1 sequence (P04637 whole entry, species assumed): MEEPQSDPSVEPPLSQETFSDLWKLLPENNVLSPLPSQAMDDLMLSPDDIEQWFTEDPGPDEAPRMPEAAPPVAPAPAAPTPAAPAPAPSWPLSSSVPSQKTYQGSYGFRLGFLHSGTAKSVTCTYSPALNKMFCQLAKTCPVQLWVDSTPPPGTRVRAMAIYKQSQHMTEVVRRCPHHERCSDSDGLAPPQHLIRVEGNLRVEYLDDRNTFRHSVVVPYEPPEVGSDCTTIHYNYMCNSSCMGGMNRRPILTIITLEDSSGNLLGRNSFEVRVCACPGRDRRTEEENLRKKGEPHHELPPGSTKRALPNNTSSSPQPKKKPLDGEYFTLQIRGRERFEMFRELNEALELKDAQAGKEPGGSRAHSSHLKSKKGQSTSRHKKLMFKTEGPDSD

Cc1ccc(C(=O)Cn2c3c(sc2=N)CCCC3)cc1 [Pifithrin α]
colony forming efficiency [1, 4]: increases
size of the organoids (mean diameter) [1, 4]: increase
survival and proliferation of the stem cells (inferred from CFE and organoid size) ([1]; freshly isolated distal cells, FIG. 13): increase survival and proliferation
organoids size ([1]; freshly isolated murine lung epithelial cells (FIG. 3)): increase
colony forming efficiency [2]: increases
size of the alveolar organoids [2]: does not increase
colony forming efficiency ([3]; cells isolated from the murine trachea, in presence of SB431542): does not show a significant effect
survival of proximal and distal progenitors (inferred from colony forming ability) ([3]; comparison of proximal and distal progenitor cell types): specific to distal stem cells
proliferation of cells (freshly isolated cells): have an effect on proliferation
protection against p53-induced neuronal cell death (p53): protection

From patent US20210147811A1, “METHODS FOR IN VITRO EXPANSION OF ADULT TISSUE STEM CELLS” (CEDARS-SINAI MEDICAL CENTER, priority 2018, published 2021)
